# Results taken from publication PMC5462828 (Scientific Reports, 2017).
# Entries after “also recorded” stand apart in the source; their conditions may differ. Like-named read-outs stand apart in the source and are kept apart here.
# Tests used:
# RXFP1 and GαoB = test system: T1, RXFP1 and GαoB; assay: Real-time kinetic BRET, RXFP1-Rluc8 / GαoB; type: cell-based, human; settings: HEK293T co-expressing RXFP1-Rluc8, Gγ2-Venus, Gβ1, GαoB; H2 relaxin 100 nM, ML290 100 nM or 10 μM
# T1 construct: forward primer encodes M-D-S-K-G-S-S, not the native RXFP1 start (N); expressed in transfected cells; host or cells: HEK293T cells stably expressing RXFP1-Rluc8, transiently co-transfected with the G protein subunits
# Experimental: HEK293 cell were seeded in 6-well plates at a density of 600,000 cells per well and transfected with constructs encoding the tagged receptors and signalling proteins. 24 h later cells were harvested in HEPES-buffered phenol red-free medium containing 5% FBS and plated out in a white 96-well plate (Nunc) that was incubated at 37 °C under 5% CO2. BRET assays were performed 48 h after transfection as described previously, [52]. Medium was replaced with phenol-red-free-DMEM supplemented with 5% FBS plus 5 μM coelenterazine h. BRET measurements were made at 37 °C using the PHERAstar Omega plate reader with Omega software (BMG LABTECH, Germany). Filtered light emissions were simultaneously measured in each of the “donor wavelength window” (475 ± 15 nm for Rluc8 with coelenterazine h) and “acceptor wavelength window” (535 ± 15 nm for Venus). Cells were assayed before and after treatment with ligands or 5% FBS phenol-red-free-DMEM medium containing 0.01% w/v BSA (vehicle). The BRET signal was calculated as previously described.
# RXFP1 [1] = assay: ERK1/2 phosphorylation (Surefire) in human primary vascular cells and cardiac fibroblasts; type: cell-based; settings: HUAEC
# Experimental: (§1) p-ERK1/2, p-p38MAPK and p-JNK1/2 was measured using the Surefire ERK, p38 and JNK kits (TGR BioSciences, Australia) as described previously, [16]. Briefly, HEK-RXFP1 cells were plated into 96-well plates (5 × 10^4 cells/well) and primary cells grown in 24-well plates (1 × 10^5 cells/well) overnight to achieve a confluent monolayer. Prior to stimulation, HEK293 cells were serum-starved with DMEM containing 0.5% (v/v) FBS and primary cells in M199 medium for 4–6 hours. […] Levels of p-ERK1/2, p-p38MAPK and p-JNK1/2/3 were detected as per manufacturer’s instructions (Perkin-Elmer, Australia).
# RXFP1 [2] = target: T2, RXFP1 (Homo sapiens, UniProt Q9HBX9); assay: cAMP accumulation in human primary vascular cells and cardiac fibroblasts; type: cell-based; settings: for Emax: 30 min
# T2 sequence (Q9HBX9 1-757): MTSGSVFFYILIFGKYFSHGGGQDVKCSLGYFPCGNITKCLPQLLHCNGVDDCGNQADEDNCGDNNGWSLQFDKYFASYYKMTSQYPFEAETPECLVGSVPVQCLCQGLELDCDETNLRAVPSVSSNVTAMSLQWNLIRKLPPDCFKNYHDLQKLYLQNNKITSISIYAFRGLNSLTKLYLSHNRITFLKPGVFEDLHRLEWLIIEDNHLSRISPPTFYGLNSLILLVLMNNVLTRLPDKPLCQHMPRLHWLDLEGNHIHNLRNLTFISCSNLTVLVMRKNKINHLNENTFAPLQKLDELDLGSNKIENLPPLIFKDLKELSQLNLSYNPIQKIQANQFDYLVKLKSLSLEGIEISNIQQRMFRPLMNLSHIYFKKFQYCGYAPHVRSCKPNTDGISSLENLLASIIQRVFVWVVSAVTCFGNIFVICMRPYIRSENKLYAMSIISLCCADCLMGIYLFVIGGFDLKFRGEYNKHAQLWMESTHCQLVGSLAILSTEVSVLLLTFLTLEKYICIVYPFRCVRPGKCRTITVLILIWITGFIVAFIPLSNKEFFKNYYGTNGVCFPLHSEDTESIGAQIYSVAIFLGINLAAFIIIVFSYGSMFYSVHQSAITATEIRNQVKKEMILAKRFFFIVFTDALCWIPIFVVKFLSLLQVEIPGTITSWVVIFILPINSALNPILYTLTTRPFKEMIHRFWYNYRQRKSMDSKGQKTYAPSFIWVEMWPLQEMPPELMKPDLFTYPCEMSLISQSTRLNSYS
# Experimental: (§2) cAMP and cGMP accumulation was determined as previously described, [16]. Briefly, HEK293 cells were plated in 96-well plates (5 × 10^4 cells/well) and human primary cells were plated into 24-well plates (1 × 10^5 cells/well) and grown overnight to achieve a confluent monolayer. Prior to stimulation, HEK cells were serum-starved in DMEM containing 0.5% FBS v/v and primary cells were serum-starved in M199 medium for 4–6 hours. Where appropriate, cells were pre-incubated with mSIRK (5 μM, 30 min), mSIRK control peptide L9A (5 μM, 30 min), gallein (100 μM, 30 min), Wortmannin (100 nM, 30 min), NF023 (10 μM, 30 min) and NF449 (10 μM, 30 min). Levels of cAMP and cGMP were detected according to the manufacturer’s instructions (Perkin-Elmer, Australia).
# RXFP1 [3] = assay: as above; type: cell-based; settings: HUAEC, cells known not to express cell surface RXFP1; 30 min
# Experimental: as §2
# MMP-2 = assay: Gelatin zymography of MMP-2 in human cardiac fibroblasts; type: cell-based; settings: HCFs; 72 hours; ML290 1 μM, H2 relaxin 0.1 μM
# Experimental: Changes in matrix metalloproteinases-2 (MMP-2; gelatinase A) activity that were secreted from HCFs into the cell media over a 72 hour experimental period, were assessed by gelatin zymography as described previously, [45]. […] Cells were used between passages 1–4, while all experiments were performed four separate times in duplicate. The optical density (OD) of MMP-2 was measured using a GS710 Calibrated Imaging Densitomer (Bio-Rad Laboratories, Hercules, CA, USA), and the mean ± SE OD of MMP-2 in each treated group was expressed as the relative ratio of the values in the untreated control group.
# THP-1 cells = test system: THP-1 cells; design: method as in PMID 23764525; settings: cited from earlier work
# LDLa mutant receptors = settings: cited from earlier work
# RXFP1 [4] = target: T2, RXFP1; assay: ERK1/2 phosphorylation (Surefire) in HEK-RXFP1 cells; type: cell-based; design: expressed in transfected cells; host or cells: HEK293T / HEK293 cells stably expressing RXFP1 (HEK-RXFP1); settings: ML290 10 μM, 10 min pretreatment
# Experimental: as §1
compound,measurement,setting,value
"CC(C)Oc1ccccc1C(=O)Nc1ccccc1C(=O)Nc1cccc(S(=O)(=O)C(F)(F)F)c1 [ML290, 2-Isopropoxy-N-(2-(3-(trifluoromethylsulfonyl)phenylcarbamoyl)phenyl) benzamide]","ligand-induced BRET, RXFP1 - GαoB interaction",RXFP1 and GαoB,promoted interactions; also recorded: moved in the opposite direction to that to H2 relaxin
same,ERK1/2 phosphorylation,RXFP1 [1],did not cause ERK1/2 phosphorylation
same,Emax,"RXFP1 [2]; HUVEC, read-out: cAMP accumulation efficacy (Emax), HUVEC",11.7%
same,"potency for cAMP accumulation, less potent than H2 relaxin",RXFP1 [2]; human primary vascular cells,3 orders of magnitude
same,Emax,"RXFP1 [2]; read-out: cAMP accumulation efficacy (Emax), HCAEC",17.9%
same,Emax,"RXFP1 [2]; read-out: cAMP accumulation efficacy (Emax), HUASMC",11.9%
same,cAMP accumulation,RXFP1 [3],did not cause cAMP accumulation
same,increase of MMP-2 expression versus untreated controls,MMP-2,~40%
same,VEGF expression,THP-1 cells,increased VEGF expression
same,cAMP production with LDLa mutant receptors,LDLa mutant receptors,still activates cAMP production
same,effect of pretreatment on maximum p-ERK1/2 response to relaxin,RXFP1 [4],significantly increased
